Reference: patent EP0565593B1, “REDUCING PESTICIDAL INTERACTIONS IN CROPS” (priority 1990, dated 1992)
Values joined by “and” are separate entries in the source; they are usually repeats but may differ in a detail not shown here. Identical values can stand only once.

What was measured:
Corn = test: Greenhouse test, combination of Procedures II and III: insecticide in-furrow or in cover layer, herbicide and antidote incorporated in cover layer (Examples 1-3, 6; Tables 1-3, 6); assay type: in vivo; conditions: for Percent Injury Corn: 7 weeks; for % Injury Corn / % Corn Injury PN 3320 / % Corn Injury PN 3377: 3 weeks; for corn injury safened: 0.14 kg/ha herbicide plus Insecticide No. 1, Antidote No. 1 0.42 kg/ha
[1] = system: velvetleaf (Abutilon theophrasti); test: Greenhouse test, combination of Procedures II and III (Examples 1, 2; Tables 1, 2); assay type: in vivo; conditions: for Percent Injury VELE: 7 weeks; for % Injury VELE: 3 weeks
[2] = Antidote 1 0.14 + Herbicide 1 0.14 Kg/Ha
[3] = Antidote 1 0.56 + Herbicide 1 0.56 Kg/Ha
[4] = Antidote 1 2.24 + Herbicide 1 2.24 Kg/Ha
[5] = Ex. 2: Antidote 1 0.14 + Herbicide 1 0.14 Kg/Ha
[6] = Ex. 2: Antidote 1 0.42 + Herbicide 1 0.14 Kg/Ha
[7] = Ex. 2: Antidote 1 0.56 + Herbicide 1 0.56 Kg/Ha
[8] = Ex. 2: Antidote 1 1.68 + Herbicide 1 0.56 Kg/Ha
[9] = Ex. 2: Insecticide 1 0.11 kg/305m + Antidote 1 0.14 + Herbicide 1 0.14 Kg/Ha
[10] = Ex. 2: Insecticide 1 0.11 kg/305m + Antidote 1 0.42 + Herbicide 1 0.14 Kg/Ha
[11] = Ex. 2: Insecticide 1 0.11 kg/305m + Antidote 1 0.56 + Herbicide 1 0.56 Kg/Ha
[12] = Ex. 2: Insecticide 1 0.11 kg/305m + Antidote 1 1.68 + Herbicide 1 0.56 Kg/Ha
[13] = Ex. 2: Insecticide 1 0.23 Kg/305m + Antidote 1 0.14 + Herbicide 1 0.14 Kg/Ha
[14] = Ex. 2: Insecticide 1 0.23 Kg/305m + Antidote 1 0.22 + Herbicide 1 0.14 + Herbicide 2 4.48 Kg/Ha
[15] = Ex. 2: Insecticide 1 0.23 Kg/305m + Antidote 1 0.42 + Herbicide 1 0.14 Kg/Ha
[16] = Ex. 2: Insecticide 1 0.23 Kg/305m + Antidote 1 0.56 + Herbicide 1 0.56 Kg/Ha
[17] = Ex. 2: Insecticide 1 0.23 Kg/305m + Antidote 1 1.68 + Herbicide 1 0.56 Kg/Ha
[18] = Ex. 2: Insecticide 2 3.36 Kg/Ha + Antidote 1 0.22 + Herbicide 1 0.14 + Herbicide 2 4.48 Kg/Ha
[19] = Ex. 2: Insecticide 2 3.36 Kg/Ha + Antidote 1 0.22 + Herbicide 2 4.48 Kg/Ha
[20] = Ex. 6: Antidote 1 0.14 + Herbicide 1 0.14 Kg/Ha
[21] = Ex. 6: Antidote 1 0.42 + Herbicide 1 0.14 Kg/Ha
[22] = Ex. 6: Antidote 1 0.56 + Herbicide 1 0.56 Kg/Ha
[23] = Ex. 6: Antidote 1 1.68 + Herbicide 1 0.56 Kg/Ha
[24] = Ex. 6: Insecticide 1 0.23 Kg/305m + Antidote 1 0.14 + Herbicide 1 0.14 Kg/Ha
[25] = Ex. 6: Insecticide 1 0.23 Kg/305m + Antidote 1 0.42 + Herbicide 1 0.14 Kg/Ha
[26] = Ex. 6: Insecticide 1 0.23 Kg/305m + Antidote 1 0.56 + Herbicide 1 0.56 Kg/Ha
[27] = Ex. 6: Insecticide 1 0.23 Kg/305m + Antidote 1 1.68 + Herbicide 1 0.56 Kg/Ha
[28] = Ex. 6: Insecticide 2 0.23 Kg/305m + Antidote 1 0.14 + Herbicide 1 0.14 Kg/Ha
[29] = Ex. 6: Insecticide 2 0.23 Kg/305m + Antidote 1 0.42 + Herbicide 1 0.14 Kg/Ha
[30] = Ex. 6: Insecticide 2 0.23 Kg/305m + Antidote 1 0.56 + Herbicide 1 0.56 Kg/Ha
[31] = Ex. 6: Insecticide 2 0.23 Kg/305m + Antidote 1 1.68 + Herbicide 1 0.56 Kg/Ha
[32] = Insecticide 1 0.23 kg/305m + Antidote 1 0.14 + Herbicide 1 0.14 Kg/Ha
[33] = Insecticide 1 0.23 kg/305m + Antidote 1 0.14 Kg/Ha, no herbicide
[34] = Insecticide 1 0.23 kg/305m + Antidote 1 0.56 + Herbicide 1 0.56 Kg/Ha
[35] = Insecticide 1 0.23 kg/305m + Antidote 1 0.56 Kg/Ha, no herbicide
[36] = Insecticide 1 0.23 kg/305m + Antidote 1 2.24 + Herbicide 1 2.24 Kg/Ha
[37] = Insecticide 1 0.23 kg/305m + Antidote 1 2.24 Kg/Ha, no herbicide
[38] = Insecticide 1 (H2O) (crystals scattered in-furrow) + Antidote 1 2 + Herbicide 1 2 Kg/Ha
[39] = Insecticide 1 (H2O) (crystals scattered in-furrow) + Antidote 1 2 Kg/Ha
[40] = Insecticide 2 3.36 kg/ha + Antidote 1 0.14 + Herbicide 1 0.14 Kg/Ha
[41] = Insecticide 2 3.36 kg/ha + Antidote 1 0.14 Kg/Ha, no herbicide
[42] = Insecticide 2 3.36 kg/ha + Antidote 1 0.56 + Herbicide 1 0.56 Kg/Ha
[43] = Insecticide 2 3.36 kg/ha + Antidote 1 0.56 Kg/Ha, no herbicide
[44] = Insecticide 2 3.36 kg/ha + Antidote 1 2.24 + Herbicide 1 2.24 Kg/Ha
[45] = Insecticide 2 3.36 kg/ha + Antidote 1 2.24 Kg/Ha, no herbicide

CC1(C)OC(c2ccco2)CN1C(=O)C(Cl)Cl (stereo not shown) [Antidote No. 1, Oxazolidine, 3-(dichloroacetyl)-2,2-dimethyl-5-(2-furanyl)-]
Percent Injury Corn (Corn; [2]): 2% | Percent Injury Corn (Corn; [3]): 5% | Percent Injury Corn (Corn; [4]): 15% | Percent Injury Corn (Corn; Antidote 1 2.24 Kg/Ha alone): 0% | % Injury Corn (Corn; [5]): 0% | % Injury Corn (Corn; [6]): 8% | % Injury Corn (Corn; [7]): 3% | % Injury Corn (Corn; [8]): 5% | injury to corn (Corn; Ex. 2: Herbicide No. 1 0.14 kg/ha + Insecticide 1 or 2, antidote applied at 3 X the herbicide rate): less than 10% | % Injury Corn (Corn; [9]): 26% | % Injury Corn (Corn; [10]): 6% | % Injury Corn (Corn; [11]): 30% | % Injury Corn (Corn; [12]): 18% | % Injury Corn (Corn; [13]): 18% | % Injury Corn (Corn; [14]): 20% | % Injury Corn (Corn; [15]): 6% | % Injury Corn (Corn; [16]): 33% | % Injury Corn (Corn; [17]): 34% | % Injury Corn (Corn; [18]): 29% | % Injury Corn (Corn; [19]): 19% | % Injury Corn (Corn; Ex. 3: Antidote 1 0.14 + Herbicide 1 0.14 Kg/Ha): 3% | % Injury Corn (Corn; Ex. 3: Antidote 1 0.22 + Herbicide 2 4.48 Kg/Ha): 13% | % Injury Corn (Corn; Ex. 3: Antidote 1 0.42 + Herbicide 1 0.14 Kg/Ha): 3% | % Injury Corn (Corn; Ex. 3: Antidote 1 0.56 + Herbicide 1 0.56 Kg/Ha): 8% | % Injury Corn (Corn; Ex. 3: Antidote 1 1.68 + Herbicide 1 0.56 Kg/Ha): 3% | corn injury (Corn; Ex. 3: Herbicide No. 1 + Insecticide 3 or 4, Antidote No. 1 at 1:1 ratio, all cases): less than 5% | % Injury Corn (Corn; Ex. 3: Insecticide 3 (227g) + Antidote 1 0.14 + Herbicide 1 0.14 Kg/Ha): 0% | % Injury Corn (Corn; Ex. 3: Insecticide 3 (227 g) + Antidote 1 0.22 + Herbicide 1 0.14 + Herbicide 2 4.48 Kg/Ha): 18% | % Injury Corn (Corn; Ex. 3: Insecticide 3 (227 g) + Antidote 1 0.22 + Herbicide 2 4.48 Kg/Ha): 25% | % Injury Corn (Corn; Ex. 3: Insecticide 3 (227g) + Antidote 1 0.42 + Herbicide 1 0.14 Kg/Ha): 20% | % Injury Corn (Corn; Ex. 3: Insecticide 3 (227g) + Antidote 1 1.68 + Herbicide 1 0.56 Kg/Ha): 8% | % Injury Corn (Corn; Ex. 3: Insecticide 4 (227g) + Antidote 1 0.14 + Herbicide 1 0.14 Kg/Ha): 3% | % Injury Corn (Corn; Ex. 3: Insecticide 4 (227g) + Antidote 1 0.22 + Herbicide 1 0.14 + Herbicide 2 4.48 Kg/Ha): 48% | % Injury Corn (Corn; Ex. 3: Insecticide 4 (227g) + Antidote 1 0.22 + Herbicide 2 4.48 Kg/Ha): 45% | % Injury Corn (Corn; Ex. 3: Insecticide 4 (227g) + Antidote 1 0.42 + Herbicide 1 0.14 Kg/Ha): 5% | % Injury Corn (Corn; Ex. 3: Insecticide 4 (227g) + Antidote 1 0.56 + Herbicide 1 0.56 Kg/Ha): 28% | % Injury Corn (Corn; Ex. 3: Insecticide 4 (227g) + Antidote 1 1.68 + Herbicide 1 0.56 Kg/Ha): 5% | % Corn Injury PN 3320 (Corn; [20]): 15% | % Corn Injury PN 3377 (Corn; [20]): 15% | % Corn Injury PN 3320 (Corn; [21]): 10% | % Corn Injury PN 3377 (Corn; [21]): 0% | % Corn Injury PN 3320 (Corn; [22]): 68% | % Corn Injury PN 3377 (Corn; [22]): 0% | % Corn Injury PN 3320 (Corn; [23]): 43% | % Corn Injury PN 3377 (Corn; [23]): 0% | % Corn Injury PN 3320 (Corn; [24]): 40% | % Corn Injury PN 3377 (Corn; [24]): 18% | % Corn Injury PN 3320 (Corn; [25]): 25% | % Corn Injury PN 3377 (Corn; [25]): 3% | % Corn Injury PN 3320 (Corn; [26]): 40% | % Corn Injury PN 3377 (Corn; [26]): 35% | % Corn Injury PN 3320 (Corn; [27]): 35% | % Corn Injury PN 3377 (Corn; [27]): 35% | % Corn Injury PN 3320 (Corn; [28]): 15% | % Corn Injury PN 3377 (Corn; [28]): 0% | % Corn Injury PN 3320 (Corn; [29]): 10% | % Corn Injury PN 3377 (Corn; [29]): 13% | % Corn Injury PN 3320 (Corn; [30]): 68% | % Corn Injury PN 3377 (Corn; [30]): 10% | % Corn Injury PN 3320 (Corn; [31]): 43% | % Corn Injury PN 3377 (Corn; [31]): 28% | Percent Injury Corn (Corn; [32]): 8% | Percent Injury Corn (Corn; [33]): 0% | Percent Injury Corn (Corn; [34]): 25% | Percent Injury Corn (Corn; [35]): 0% | Percent Injury Corn (Corn; [36]): 77% | Percent Injury Corn (Corn; [37]): 0% | Percent Injury Corn (Corn; [38]): 78% | Percent Injury Corn (Corn; [39]): 13% | Percent Injury Corn (Corn; [40]): 75% | Percent Injury Corn (Corn; [41]): 0% | Percent Injury Corn (Corn; [42]): 70% | Percent Injury Corn (Corn; [43]): 0% | Percent Injury Corn (Corn; [44]): 92% | Percent Injury Corn (Corn; [45]): 0% | corn injury safened (Corn; sensitive genotype PN 3320): 74% | corn injury safened (Corn; tolerant genotype PN 3377): 96% | Percent Injury VELE [1, 2]: 88% | Percent Injury VELE [1, 3]: 92% | Percent Injury VELE [1, 4]: 93% | Percent Injury VELE ([1]; Antidote 1 2.24 Kg/Ha alone): 0% | % Injury VELE [1, 5]: 86% | % Injury VELE [1, 6]: 93% | % Injury VELE [1, 7]: 90% | % Injury VELE [1, 8]: 95% | % Injury VELE [1, 9]: 78% | % Injury VELE [1, 10]: 84% | % Injury VELE [1, 11]: 93% | % Injury VELE [1, 12]: 95% | % Injury VELE ([1]; Ex. 2: Insecticide 1 0.23 Kg/305m (ditto mark) + Antidote 1 0.22 + Herbicide 2 4.48 Kg/Ha (so in the source)): 36% and 38% | % Injury VELE [1, 13]: 83% | % Injury VELE [1, 14]: 98% | % Injury VELE [1, 15]: 90% | % Injury VELE [1, 16]: 95% | % Injury VELE [1, 17]: 93% | % Injury VELE ([1]; Ex. 2: Insecticide 2 1.68 kg/Ha + Antidote 1 0.14 + Herbicide 1 0.14 Kg/Ha (so in the source)): 91% and 84% and 79% | % Injury VELE ([1]; Ex. 2: Insecticide 2 1.68 kg/Ha + Antidote 1 0.56 + Herbicide 1 0.56 Kg/Ha (so in the source)): 90% and 89% and 91% | % Injury VELE ([1]; Ex. 2: Insecticide 2 3.36 Kg/Ha + Antidote 1 0.14 + Herbicide 1 0.14 Kg/Ha (so in the source)): 81% and 79% and 89% | % Injury VELE [1, 18]: 83% | % Injury VELE [1, 19]: 11% | % Injury VELE ([1]; Ex. 2: Insecticide 2 3.36 Kg/Ha + Antidote 1 0.56 + Herbicide 1 0.56 Kg/Ha (so in the source)): 95% | Percent Injury VELE [1, 32]: 87% | Percent Injury VELE [1, 33]: 0% | Percent Injury VELE [1, 34]: 90% | Percent Injury VELE [1, 35]: 0% | Percent Injury VELE [1, 36]: 92% | Percent Injury VELE [1, 37]: 0% | Percent Injury VELE [1, 38]: 95% | Percent Injury VELE [1, 39]: 0% | Percent Injury VELE [1, 40]: 83% | Percent Injury VELE [1, 41]: 78% | Percent Injury VELE [1, 42]: 92% | Percent Injury VELE [1, 43]: 33% | Percent Injury VELE [1, 44]: 95% | Percent Injury VELE [1, 45]: 0%
